Tests used:
[1] = system: histone deacetylase enzyme; conditions: cited from earlier work
[2] = system: transformed cells in culture; conditions: cited from earlier work
[3] = system: histone deacetylase (HDAC); assay: Acetylated histone levels in mouse tissues after IP injection (Western blot of isolated histones); assay type: in vivo; conditions: mice, three injections at 1 hour intervals, SAHA 100 mg/kg, pyroxamide 200 mg/kg
Method: FIG. […]
Each mouse was administered three injections at the indicated dose at 1 hour intervals. After the final IP injection tissues (brain, spleen or liver) were isolated at the times indicated. Histones were isolated from tissues essentially as described by Yoshida et al., (1990) J. Biol. Chem. 265:17174-17179. Equal amounts of histones (1 μg) were electrophoresed on 15% SDS-polyacrylamide gels and transferred to Hybond-P filters (Amersham). Filters were blocked with 3% milk and probed with a rabbit purified polyclonal anti-acetylated histone H4 antibody (αAc-H4) and anti-acetylated histone H3 antibody (αAc-H3) (Upstate Biotechnology, Inc.). Levels of acetylated histone were visualized using a horseradish peroxidase-conjugated goat anti-rabbit antibody (1:5000) and the SuperSignal chemiluminescent substrate (Pierce). As a loading control for the histone proteins, parallel gels were run and stained with Coomassie Blue (CB).

tumor growth = conditions: cited from earlier work

SMILES	binding to histone deacetylase enzyme [1]	cell cycle arrest, differentiation and/or apoptosis [2]	crossing of the blood brain barrier [3]	toxicity to the animal (tumor growth; animals in tumor growth studies)	accumulation of acetylated histones in the tumor (tumor growth; tumor)	inhibition of HDAC activity / accumulation of acetylated histones in the brain ([3]; brain histones, anti-AcH3/AcH4 Western blot)
O=C(CCCCCCC(=O)Nc1ccccc1)NO [SAHA, suberoylanilide hydroxamic acid]	bind directly in the catalytic pocket of the histone deacetylase enzyme	induces cell cycle arrest, differentiation and/or apoptosis of transformed cells in culture	can cross the blood brain barrier	no toxicity to the animal	associated with an accumulation of acetylated histones in the tumor	–
O=C(CCCCCCC(=O)Nc1cccnc1)NO [pyroxamide]	–	–	can cross the blood brain barrier	–	–	significantly inhibit HDAC activity causing the accumulation of acetylated histones in the brain
